# Test results published in patent publication US20110190365A1, “Insecticidal 4-phenyl-1H-pyrazoles” (Bayer Crop Science AG, priority 2008, published 2011).
# Assay: log P by HPLC on a reversed-phase column (C18), EEC Directive 79/831 Annex V.A8
# Assay type: physicochemical
# Conditions: HCOOH
# Experimental: The stated log P values were determined in accordance with EEC Directive 79/831 Annex V.A8 by HPLC (High Performance Liquid Chromatography) using a reversed-phase column (C18).
row,SMILES,log P (HCOOH)
1,Cc1cc(-n2nc(C)c(-c3c(Cl)cccc3Cl)c2N)ccc1C(=O)NCC(F)(F)C(F)F [I-A-Q2-336],I-A-Q2-336: log P (HCOOH): 2.76
2,Cc1cc(-n2nc(C(F)(F)F)c(-c3cc(Cl)cc(Cl)c3)c2N)ccc1C(=O)NC1CCCCC1C(F)(F)F (centres unmarked) [I-A-Q2-274],I-A-Q2-274: log P (HCOOH): 4.95
3,Cc1cc(-n2nc(C(F)(F)F)c(-c3cc(Cl)cc(Cl)c3)c2N)ccc1C(=O)NCc1cn(C)cn1 [I-A-Q2-058],I-A-Q2-058: log P (HCOOH): 1.94
4,Cc1cc(-n2nc(C(F)(F)F)c(-c3cc(F)c(F)c(F)c3)c2N)ccc1C(=O)NCC(F)(F)C(F)F [I-A-Q2-316],I-A-Q2-316: log P (HCOOH): 3.65
5,Cc1cc(-n2nc(C(F)(F)F)c(-c3cc(Cl)cc(Cl)c3)c2N)ccc1C(=O)NCc1cc(F)ccc1F [I-A-Q2-046],I-A-Q2-046: log P (HCOOH): 4.51
6,Cc1cc(-n2nc(C(F)(F)F)c(-c3cc(Cl)cc(Cl)c3)c2N)ccc1C(=O)NCc1ccc(C(F)(F)F)cn1 [I-A-Q2-233],I-A-Q2-233: log P (HCOOH): 4.40
7,CCCc1nn(-c2ccc(C(=O)NCc3ccccn3)c(C)c2)c(N)c1-c1ccc(Cl)cc1 [I-A-Q2-380],I-A-Q2-380: log P (HCOOH): 2.53
8,Cc1cc(-n2nc(C(F)(F)F)c(-c3ccccc3Cl)c2N)ccc1C(=O)NCc1ccccn1 [I-A-Q2-351],I-A-Q2-351: log P (HCOOH): 2.27
9,Cc1cc(-n2nc(C(F)(F)F)c(-c3cc(Cl)cc(Cl)c3)c2N)ccc1C(=O)NCC1CC1 [I-A-Q2-220],I-A-Q2-220: log P (HCOOH): 4.11
10,Nc1c(Br)c(C(F)(F)F)nn1-c1ccc(C(=O)O)cc1 [XI-A-038],XI-A-038: log P (HCOOH): 2.38
11,Cc1cc(-n2nc(C(F)(F)F)c(-c3ccc(F)c(F)c3)c2N)ccc1C(=O)NCc1ccccn1 [I-A-Q2-355],I-A-Q2-355: log P (HCOOH): 2.50
12,CC(NC(=O)c1ccc(-n2nc(C(F)(F)F)c(-c3ccc(F)c(F)c3)c2N)cc1)C(F)(F)F (centres unmarked) [I-A-Q2-175],I-A-Q2-175: log P (HCOOH): 3.47
13,COc1cnc(CNC(=O)c2ccc(-n3nc(C(F)(F)F)c(-c4cc(Cl)cc(Cl)c4)c3N)cc2C)cc1OC [I-A-Q2-037],I-A-Q2-037: log P (HCOOH): 2.42
14,Cc1cc(-n2nc(C(F)(F)F)c(-c3cc(Cl)cc(Cl)c3)c2N)ccc1C(=O)NCC(F)(F)C(F)F [I-A-Q2-035],I-A-Q2-035: log P (HCOOH): 4.23
15,Cc1cc(-n2nc(C(F)(F)F)c(-c3cc(Cl)cc(Cl)c3)c2N)ccc1C(=O)NC1CCCCC1 [I-A-Q2-222],I-A-Q2-222: log P (HCOOH): 4.76
16,Cc1cc(-n2nc(C(F)(F)F)c(-c3cc(Cl)cc(Cl)c3)c2N)ccc1C(=O)NC(C)c1ccccc1 (centres unmarked) [I-A-Q2-016],I-A-Q2-016: log P (HCOOH): 4.79
17,Cc1cc(-n2nc(C(F)(F)F)c(Br)c2N)ccc1C(=O)NCC(F)(F)C(F)F [XI-A-092],XI-A-092: log P (HCOOH): 3.03
18,Cc1cc(-n2nc(C(F)(F)F)c(-c3cc(Cl)cc(Cl)c3)c2N)ccc1C(=O)NCCOC(C(F)(F)F)C(F)(F)F [I-A-Q2-048],I-A-Q2-048: log P (HCOOH): 4.70
19,Cc1cc(-n2nc(C(F)(F)F)c(I)c2N)ccc1C(=O)O [XI-A-087],XI-A-087: log P (HCOOH): 2.58
20,Nc1c(-c2cc(Cl)cc(Cl)c2)c(C(F)(F)F)nn1-c1ccc(C(=O)NCCC(F)(F)F)cc1 [I-A-Q2-139],I-A-Q2-139: log P (HCOOH): 4.25

row,SMILES,log P (HCOOH)
1,Cc1cc(-n2nc(C(F)(F)F)c(-c3cc(Cl)cc(Cl)c3)c2N)ccc1C(=O)NCc1ncc(Cl)cc1C(F)(F)F [I-A-Q2-235],I-A-Q2-235: log P (HCOOH): 4.95
2,Cc1cc(-n2nc(C(F)(F)C(F)(F)F)c(-c3ccc(Cl)cc3)c2N)ccc1C(=O)NCc1ccccn1 [I-A-Q2-363],I-A-Q2-363: log P (HCOOH): 3.19
3,Cc1cc(-n2nc(C)c(-c3ccc(Cl)cc3)c2N)ccc1C(=O)NCc1ccccn1 [I-A-Q2-366],I-A-Q2-366: log P (HCOOH): 1.91
4,Cc1cc(-n2nc(C(F)(F)F)c(-c3cc(Cl)cc(Cl)c3)c2N)ccc1C(=O)NC1CCCC1 [I-A-Q2-223],I-A-Q2-223: log P (HCOOH): 4.45
5,CC(C)NC(=O)c1ccc(-n2nc(C(F)(F)F)c(-c3ccc(Br)cc3)c2N)cc1 [I-A-Q2-187],I-A-Q2-187: log P (HCOOH): 3.42
6,Cc1cc(-n2nc(C)c(-c3cccc(Cl)c3)c2N)ccc1C(=O)NCc1ccccn1 [I-A-Q2-371],I-A-Q2-371: log P (HCOOH): 1.88
7,Nc1c(-c2ccc(Cl)c(F)c2)c(C(F)(F)F)nn1-c1ccc(C(=O)NC2CC2)cc1 [I-A-Q2-170],I-A-Q2-170: log P (HCOOH): 3.15
8,Nc1c(-c2ccc(Cl)c(F)c2)c(C(F)(F)F)nn1-c1ccc(C(=O)NC2CC2)cc1 [I-A-Q2-167],I-A-Q2-167: log P (HCOOH): 3.19
9,Nc1c(-c2ccc(F)c(F)c2)c(C(F)(F)F)nn1-c1ccc(C(=O)NCc2ccccn2)cc1 [I-A-Q2-177],I-A-Q2-177: log P (HCOOH): 2.27
10,Cc1cc(-n2nc(C)c(-c3ccc(Cl)c(Cl)c3)c2N)ccc1C(=O)NCC(F)(F)C(F)F [I-A-Q2-323],I-A-Q2-323: log P (HCOOH): 4.32
11,CC(NC(=O)c1ccc(-n2nc(C(F)(F)F)c(-c3cccc(F)c3)c2N)cc1)c1ccccn1 (centres unmarked) [I-A-Q2-186],I-A-Q2-186: log P (HCOOH): 2.42
12,CCC(C)NC(=O)c1ccc(-n2nc(C(F)(F)F)c(-c3cc(Cl)cc(Cl)c3)c2N)cc1 (centres unmarked) [I-A-Q2-145],I-A-Q2-145: log P (HCOOH): 4.34
13,CC(NC(=O)c1ccc(-n2nc(C(F)(F)F)c(-c3ccc(Cl)c(F)c3)c2N)cc1)C(F)(F)F (centres unmarked) [I-A-Q2-169],I-A-Q2-169: log P (HCOOH): 3.78
14,Cc1cc(-n2nc(C(F)(F)F)c(-c3c(F)cc(F)cc3F)c2N)ccc1C(=O)NCc1ccccn1 [I-A-Q2-350],I-A-Q2-350: log P (HCOOH): 2.34
15,Nc1c(-c2cc(Cl)cc(Cl)c2)c(C(F)(F)F)nn1-c1ccc(C(=O)NCc2ncccn2)cc1 [I-A-Q2-137],I-A-Q2-137: log P (HCOOH): 3.40
16,Cc1cc(-n2nc(C(C)C)c(-c3ccc(Cl)cc3)c2N)ccc1C(=O)NCC(F)(F)C(F)F [I-A-Q2-338],I-A-Q2-338: log P (HCOOH): 3.65
17,Cc1cc(-n2nc(C)c(-c3c(Cl)cccc3Cl)c2N)ccc1C(=O)NCc1ccccn1 [I-A-Q2-376],I-A-Q2-376: log P (HCOOH): 1.79
18,Cc1cc(-n2nc(C(F)(F)F)c(-c3ccc(C#N)cc3)c2N)ccc1C(=O)NCC(F)(F)C(F)F [I-A-Q2-306],I-A-Q2-306: log P (HCOOH): 3.24
19,Cc1cc(-n2nc(C(F)(F)F)c(-c3cc(Cl)cc(Cl)c3)c2I)ccc1C(=O)NCc1ncccn1 [I-A-Q2-275],I-A-Q2-275: log P (HCOOH): 4.47

# Same assay, conditions: HCOOH; Table 4, compounds of formula I-A-Q4
row,SMILES,log P (HCOOH)
1,COC(=O)c1cnc(-n2nc(C(F)(F)F)c(-c3cc(Cl)cc(Cl)c3)c2N)nc1C(F)(F)F [I-A-Q4-063],I-A-Q4-063: log P (HCOOH): 4.66
2,Nc1c(-c2ccc(Cl)cc2Cl)c(C(F)(F)F)nn1-c1ccc(C(=O)O)cc1 [I-A-Q4-095],I-A-Q4-095: log P (HCOOH): 3.44
3,Nc1c(-c2cc(Cl)cc(Cl)c2)c(C(F)(F)F)nn1-c1ccc(S(=O)(=O)NC2CC2)c(Cl)c1 [I-A-Q4-110],I-A-Q4-110: log P (HCOOH): 4.49
4,FC(F)(F)c1nn(-c2ccc(I)cc2)c(I)c1-c1cc(Cl)cc(Cl)c1 [I-A-Q4-018],I-A-Q4-018: log P (HCOOH): 6.50
5,Cc1nn(-c2ccc(Cl)cn2)c(N)c1-c1c(Cl)cccc1Cl [I-A-Q4-029],I-A-Q4-029: log P (HCOOH): 4.05

# Same assay, conditions: HCOOH; compounds of the formula (IX), Table 11
row,SMILES,log P (HCOOH)
1,Nc1[nH]nc(C(F)(F)F)c1-c1ccc(F)cc1 [IX-202],IX-202: log P (HCOOH): 2.16
2,CC(=O)Nc1[nH]nc(C(F)(F)F)c1-c1ccc(Cl)cc1Cl [IX-204],IX-204: log P (HCOOH): 2.79

# Same assay, conditions: HPLC, reversed-phase C18, mobile phase with formic acid
row,SMILES,log P (HCOOH)
1,Cc1nn(-c2ccc(-n3cncn3)c(C#N)c2)c(N)c1-c1cccc(Cl)c1 [I-A-Q1-053],I-A-Q1-053: log P (HCOOH): 2.66
2,N#Cc1cc(-n2nc(C(F)(F)F)c(-c3ccc(Cl)c(F)c3)c2N)ccc1-n1cncn1 [I-A-Q1-032],I-A-Q1-032: log P (HCOOH): 3.28
3,Cc1nn(-c2ccc(-n3cncn3)c(C#N)c2)c(N)c1-c1ccccc1 [I-A-Q1-066],I-A-Q1-066: log P (HCOOH): 2.14
4,N#Cc1cc(-n2nc(C(F)(F)F)c(-c3cccc(Br)c3)c2N)ccc1-n1cncn1 [I-A-Q1-046],I-A-Q1-046: log P (HCOOH): 3.24
5,N#Cc1cc(-n2nc(C(F)(F)F)c(-c3cc(Cl)cc(Cl)c3)c2N)ccc1-n1cc(F)cn1 [I-A-Q1-092],I-A-Q1-092: log P (HCOOH): 4.40
6,COc1ccc(-c2c(C)nn(-c3ccc(-n4cncn4)c(C#N)c3)c2N)cc1 [I-A-Q1-058],I-A-Q1-058: log P (HCOOH): 2.11
7,Cc1nc(C)n(-c2ccc(-n3nc(C(F)(F)F)c(-c4cc(Cl)cc(Cl)c4)c3N)cc2C#N)n1 [I-A-Q1-083],I-A-Q1-083: log P (HCOOH): 3.84
8,N#Cc1cc(-n2nc(C(F)(F)F)c(-c3cc(C(F)(F)F)cc(C(F)(F)F)c3)c2N)ccc1-n1cncn1 [I-A-Q1-027],I-A-Q1-027: log P (HCOOH): 4.07
9,N#Cc1cc(-n2nc(C(F)(F)Oc3ccc(Cl)cc3)c(-c3cc(Cl)cc(C(F)(F)F)c3)c2N)ccc1-n1cncn1 [I-A-Q1-071],I-A-Q1-071: log P (HCOOH): 4.84
10,N#Cc1cc(-n2nc(C(F)(F)Cl)c(-c3cc(Cl)cc(C(F)(F)F)c3)c2N)ccc1-n1cncn1 [I-A-Q1-049],I-A-Q1-049: log P (HCOOH): 4.11
11,N#Cc1cc(-n2nc(C(F)(F)C(F)(F)F)c(-c3cc(C(F)(F)F)cc(C(F)(F)F)c3)c2N)ccc1-n1cncn1 [I-A-Q1-050],I-A-Q1-050: log P (HCOOH): 4.34

# Same assay, conditions: HPLC, reversed-phase C18, mobile phase with formic acid; read-out: log P (HCOOH)
row,SMILES,chromatographic logP
1,"Cc1cc(-n2nc(C(F)(F)F)c(-c3ccc(Cl)c(Cl)c3)c2N)ccc1C(=O)O [I-A-Q4-012, 4-[5-Amino-4-(3,4-dichlorophenyl)-3-(trifluoromethyl)-1H-pyrazol-1-yl]-2-methylbenzoic acid]",3.92
2,"CCOC(=O)c1ccc(-n2nc(C(F)(F)F)c(-c3ccc(Cl)c(Cl)c3)c2N)cc1C [I-A-Q4-013, Ethyl 4-[5-amino-4-(3,4-dichlorophenyl)-3-(trifluoromethyl)-1H-pyrazol-1-yl]-2-methylbenzoate]",5.24
